Common to all, as to assay type: cell-based
Experiment [1] has as its system E. coli bacterial cells induced to produce β-galactosidase. Kind of experiment: β-galactosidase release colour change assay (X-gal), induced bacteria in welled plate. The settings on record: then X-gal 15 minutes at 37° C. The protocol: (§1) Non-induced E. coli cells were deposited in wells F1-F3 (control). The cells were treated as follows: Group 1, 10% SDS was added to wells A1-A3, B1-B3, and C1-C3; Group 2, 100 μM LL-37 was added to D1-D3; Group 3, untreated induced bacterial cells in wells E1-E3 (control); Group 4, 100 μM LL-37 added to wells F1-F3. Samples were incubated for 15 minutes post-treatment, and 20 μL of 20 mg/mL X-gal substrate was added to each well and allowed to incubate for 15 minutes at 37° C.
A plate was designed as set forth in FIG. 6a: Group 5, induced bacterial cells treated with 100 uM LL-37 (wells A1-A3, B1-B3, C1-C3); Group 6, induced bacterial cells treated with 10% PBS (wells D1-D3), Group 7, non-induced bacteria treated with a lytic agent (wells E1-E3); Group 8, non-induced bacteria untreated (wells F1-F3); Group 9, induced bacteria treated with a lytic agent (wells G1-G3); and Group 10, untreated induced bacteria.
Samples were incubated for 15 minutes post-treatment, and 20 uL of 20 mg/mL X-gal substrate was added to each well and allowed to incubate for 15 minutes at 37° C.
A plate was designed as set forth in FIG. 7a: Group 11, induced bacteria were treated with 100 uM LL-37 (wells A1-A3, B1-B3, and C1-C3); Group 12, induced bacteria that were untreated (wells D1-D3). […]

The test system of experiment [2] is Non-induced E. coli cells. As to the kind of experiment: β-galactosidase release colour change assay (X-gal), non-induced control cells. The settings on record: 100 μM LL-37; non-induced cells (Group 4); 15 minutes, then X-gal 15 minutes at 37° C. The protocol: as §1
Experiment [3] concerns induced bacteria, lyophilized. As to the kind of experiment: Bacterial Assay IV: lyophilized and rehydrated induced bacteria, X-gal colour change in tubes. The settings on record: 100 uM LL-37, rehydrated after 72 hours, X-gal 15 minutes at 37° C. The protocol:
Aliquots of induced bacteria were prepared with 1 mL of the sample dispensed into three Eppendorf tubes. Samples were then lyophilized. After 72 hours to ensure stability, tubes were rehydrated with 1 mL of RPMI 1640 (+) Glucose culture medium and treated. 50 uL of 20 mg/mL X-gal substrate was added to each tube and allowed to incubate for 15 minutes at 37° C.

Another experiment concerns lacZ transfected E. coli. As to the kind of experiment: Bacterial Assay: 1:2 dilution series of LL-37 on IPTG-induced lacZ transfected E. coli, X-gal colour change. Particulars: 15 minutes room temperature, X-gal 15 minutes 37° C. Here is the method: E. coli cells transfected with the lacZ gene that encodes the protein β-galactosidase were obtained. The cells were plated to produce isolate colonies that were then selected.
An isolate colony of lacZ transfected E. coli from the plate of Example 2 was looped and inoculated into 10 mL of RPMI 1640 medium+glucose (available from ThermoFisher Scientific, Waltham, Mass.) and incubated at 37° C. for 24 hours.
The liquid bacterial culture from Example 3 was removed from incubation and centrifuged at 1200 RPM for 7 minutes. The supernatant was removed, and the bacterial pellet was resuspended in 1 mL of RPMI 1640 (−glucose) liquid tissue culture medium as Sample A. A 15 mL centrifuge tube was filled with induction media (8.9 mL RPMI 1640 (−glucose), 100 μL induced IPTG. 1 mL of the resuspended bacterial culture from Sample A was added to the new tube as Sample B, for a final volume of 10 mL. Sample B was incubated at 37° C. for 60 minutes.
After incubation, 100 μL of Sample B was transferred to each of wells A1-A12 and B1-B12. 10 μL of a 2000 μM LL-37 stock solution was then added to well A1, and a 1:2 dilution was conducted across wells A2-A11. The dilution was repeated for wells B1-B11. No LL-37 solution was added to wells A12 and B12 (controls). The plate was incubated for 15 minutes at room temperature. […]

For the compound `CCCCCCCCCCCCOS(=O)(=O)[O-].[Na+]` [SDS], in experiment [1] (10% SDS, 15 minutes post-treatment), the “colorimetric result (color change pink to blue, release of β-galactosidase)” value is “mild color change”.

For the compound “LL-37: anti-microbial alpha-helical 37 amino acid peptide released from human cathelicidin; membrane lytic peptide, human or synthetic”, the “colorimetric result (color change pink to blue, release of β-galactosidase)” value in experiment [1] (100 μM LL-37, 15 minutes post-treatment) is on record as “completely converted the well color from pink to blue”. For the same compound, in experiment [2], the “colorimetric result (color change pink to blue)” value is “remained pink”. The “tube color change pink to blue (release of β-galactosidase)” value in experiment [3] is on record as “converted the tube color from pink to blue”. For the same compound, the “visual color change, higher concentrations of dilution series” value in the experiment on lacZ transfected E. coli (wells A1-A5 and B1-B5, 10 μL of 2000 μM stock in well 1, then 1:2 dilution) is given as “appeared blue”. Moreover, in the experiment on lacZ transfected E. coli (wells A6-A11 and B6-B11 of the 1:2 dilution series), the “visual color change, lower concentrations of dilution series” value was “remained pink”.

(Values after US10858398B2, “Lytic peptide biosensor and methods of making and using the same” (Deetex, LLC, priority 2018, dated 2020).)
